# pEC50: −log10 of the molar value.
# Test system: Hepatitis C replicon
# Test: HCV replicon assay (NPT ELISA readout) in Huh-7 replicon-containing cells
# Assay type: cell-based, Hepatitis C virus
# Conditions: Hepatitis C virus, 72 h; HCV replicon in Huh-7 cells, three days incubation
# Method in brief: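 Replication is measured as neomycin phosphotransferase level by captured ELISA after three days of compound exposure (typically 10 to 0.03 μM, 6 concentrations) at 37 °C. Cells are Huh-7 harbouring an HCV replicon with neo gene and NS3-NS5B; interferon alpha is the positive control.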
row,Compound,pEC50
1,"CO/N=C1\CN(C(=O)C[C@H]2CCCCC/C=C\[C@@H]3C[C@@]3(C(=O)NS(=O)(=O)C3CC3)NC(=O)[C@@H]3C[C@@H](Oc4cc(-c5ccccc5)nc5cc(OC)ccc45)CN3C2=O)CC1(C)CN (stereo partly drawn) [Compound 110, (2R,6R,14aR,16aS,Z)-6-(2-((Z)-3-(aminomethyl)-4-(methoxyimino)-3-methylpyrrolidin-1-yl)-2-oxoethyl)-N-(cyclopropylsulfonyl)-2-(7-methoxy-2-phenylquinolin-4-yloxy)-5,16-dioxo-1,2,3,5,6,7,8,9,10,11, 13a,14,14a,15,16,16a-hexadecahydrocyclopropa [e]pyrrolo[1,2-a][1,4] diazacyclopentadecine-14a-carboxamide]",> 6.00
2,"COc1ccc2c(O[C@@H]3C[C@H]4C(=O)N[C@]5(C(=O)NS(=O)(=O)C6CC6)C[C@H]5/C=C\CCCCC[C@H](CC(=O)N5CC[C@H](C(C)(C)N)C5)C(=O)N4C3)cc(-c3ccccc3)nc2c1 [Compound 111, (2R,6R,14aR,16aS,Z)-6-(2-((S)-3-(2-aminopropan-2-yl)pyrrolidin-1-yl)-2-oxoethyl)-N-(cyclopropylsulfonyl)-2-(7-methoxy-2-phenylquinolin-4-yloxy)-5,16-dioxo-1,2,3,5,6,7,8,9,10,11, 13a,14,14a,15,16,16a-hexadecahydrocyclopropa [e]pyrrolo[1,2-a][1,4] diazacyclopentadecine-14a-carboxamide]",> 6.00
3,"O=C1N[C@]2(C(=O)NS(=O)(=O)C3CC3)C[C@H]2/C=C\CCCCC[C@H](CC(=O)N2CCCCC2)C(=O)N2C[C@H](OC(=O)N3CCc4ccccc4C3)C[C@@H]12 [Compound 112, (2R,6R,14aR, 16aS,Z)-14a-(cyclopropylsulfonyl-carbamoyl)-5,16-dioxo-6-(2-oxo-2-(piperidin-1-yl)ethyl)-1,2,3,5,6,7,8,9,10,11, 13a,14,14a,15,16,16a-hexadecahydrocyclopropa [e]pyrrolo[1,2-a][1,4] diazacyclopentadecin-2-yl 3,4-dihydroisoquinoline-2(1H)-carboxylate]",> 6.00
4,"O=C1N[C@]2(C(=O)NS(=O)(=O)C3CC3)C[C@H]2/C=C\CCCCC[C@H](CC(=O)N2CCCC(F)(F)C2)C(=O)N2C[C@H](OC(=O)N3CCc4ccccc4C3)C[C@@H]12 [Compound 113, (2R,6R,14aR, 16aS,Z)-14a-(cyclopropylsulfonyl-carbamoyl)-6-(2-(3,3-difluoropiperidin-1-yl)-2-oxoethyl)-5,16-dioxo-1,2,3,5,6,7,8,9,10,11, 13a,14,14a,15,16,16a-hexadecahydrocyclopropa [e]pyrrolo[1,2-a][1,4] diazacyclopentadecin-2-yl 3,4-dihydroisoquinoline-2(1H)-carboxylate]",> 6.00
5,"O=C1N[C@]2(C(=O)NS(=O)(=O)C3CC3)C[C@H]2/C=C\CCCCC[C@H](CC(=O)N2CCC(F)(F)C2)C(=O)N2C[C@H](OC(=O)N3CCc4ccccc4C3)C[C@@H]12 [Compound 114, (2R,6R,14aR, 16aS,Z)-14a-(cyclopropylsulfonyl-carbamoyl)-6-(2-(3,3-difluoropyrrolidin-1-yl)-2-oxoethyl)-5,16-dioxo-1,2,3,5,6,7,8,9,10,11, 13a,14,14a,15,16,16a-hexadecahydrocyclopropa [e]pyrrolo[1,2-a][1,4] diazacyclopentadecin-2-yl 3,4-dihydroisoquinoline-2(1H)-carboxylate]",> 6.00
6,"O=C1N[C@]2(C(=O)NS(=O)(=O)C3CC3)CC2/C=C\CCCCC[C@H](CC(=O)N2CCC(C(F)(F)F)CC2)C(=O)N2C[C@H](OC(=O)N3CCc4ccccc4C3)C[C@@H]12 (stereo partly drawn) [Compound 115, (2R,6R,14aR, 16aS,Z)-14a-(cyclopropylsulfonyl-carbamoyl)-5,16-dioxo-6-(2-oxo-2-(4-(trifluoromethyl)piperidin-1-yl)ethyl)-1,2,3,5,6,7,8,9,10,11, 13a,14,14a,15,16,16a-hexadecahydrocyclopropa [e]pyrrolo[1,2-a][1,4] diazacyclopentadecin-2-yl 3,4-dihydroisoquinoline-2(1H)-carboxylate]",> 6.00
7,"COc1ccc2c(O[C@@H]3C[C@H]4C(=O)N[C@]5(C(=O)NS(=O)(=O)C6CC6)C[C@H]5/C=C\CCCCC[C@H](CC(=O)N5CCCCC5)C(=O)N4C3)cc(-c3ccccn3)nc2c1C [Compound 116, (2R,6R,14aR,16aS,Z)-N-(cyclopropylsulfonyl)-2-(7-methoxy-8-methyl-2-(pyridin-2-yl)quinolin-4-yloxy)-5, 16-dioxo-6-(2-oxo-2-(piperidin-1-yl)ethyl)-1,2,3,5,6,7,8,9,10,11, 13a,14,14a,15,16,16a-hexadecahydrocyclopropa [e]pyrrolo[1,2-a][1,4] diazacyclopentadecine-14a-carboxamide]",> 6.00
8,"COc1ccc2c(O[C@@H]3C[C@H]4C(=O)N[C@]5(C(=O)NS(=O)(=O)C6CC6)C[C@H]5/C=C\CCCCC[C@H](CC(=O)N5CCC(C(F)(F)F)CC5)C(=O)N4C3)cc(-c3ccccn3)nc2c1C [Compound 117, (2R,6R,14aR,16aS,Z)-N-(cyclopropylsulfonyl)-2-(7-methoxy-8-methyl-2-(pyridin-2-yl)quinolin-4-yloxy)-5, 16-dioxo-6-(2-oxo-2-(4-(trifluoromethyl)piperidin-1-yl)ethyl)-1,2,3,5,6,7,8,9,10,11, 13a,14,14a,15,16,16a-hexadecahydrocyclopropa [e]pyrrolo[1,2-a][1,4] diazacyclopentadecine-14a-carboxamide]",< 5.00
9,"COc1ccc2c(O[C@@H]3C[C@H]4C(=O)N[C@]5(C(=O)NS(=O)(=O)C6CC6)C[C@H]5/C=C\CCCCC[C@H](CC(=O)N5CCCCC5)C(=O)N4C3)cc(-c3nc(C(C)C)cs3)nc2c1 [Compound 118, (2R,6R,14aR,16aS,Z)-N-(cyclopropylsulfonyl)-2-(2-(4-isopropylthiazol-2-yl)-7-methoxyquinolin-4-yloxy)-5,16-dioxo-6-(2-oxo-2-(piperidin-1-yl)ethyl)-1,2,3,5,6,7,8,9,10,11, 13a,14,14a,15,16,16a-hexadecahydrocyclopropa [e]pyrrolo[1,2-a][1,4] diazacyclopentadecine-14a-carboxamide]",> 6.00
10,"COc1ccc2c(O[C@@H]3C[C@H]4C(=O)N[C@]5(C(=O)NS(=O)(=O)C6CC6)C[C@H]5/C=C\CCCCC[C@H](CC(=O)N5CCC(C(F)(F)F)CC5)C(=O)N4C3)cc(-c3nc(C(C)C)cs3)nc2c1 [Compound 119, (2R,6R,14aR,16aS,Z)-N-(cyclopropylsulfonyl)-2-(2-(4-isopropylthiazol-2-yl)-7-methoxyquinolin-4-yloxy)-5,16-dioxo-6-(2-oxo-2-(4-(trifluoromethyl)piperidin-1-yl)ethyl)-1,2,3,5,6,7,8,9,10,11, 13a,14,14a,15,16,16a-hexadecahydrocyclopropa [e]pyrrolo[1,2-a][1,4] diazacyclopentadecine-14a-carboxamide]",> 6.00
11,"COc1ccc2c(O[C@@H]3C[C@H]4C(=O)N[C@]5(C(=O)NS(=O)(=O)C6CC6)C[C@H]5/C=C\CCCCC[C@H](CC(=O)N5CCCCC5)C(=O)N4C3)cc(-c3ccccc3)cc2c1 [Compound 120, (2R,6R,14aR,16aS,Z)-N-(cyclopropylsulfonyl)-2-(6-methoxy-3-phenylnaphthalen-1-yloxy)-5,16-dioxo-6-(2-oxo-2-(piperidin-1-yl)ethyl)-1,2,3,5,6,7,8,9,10,11, 13a,14,14a,15,16,16a-hexadecahydrocyclopropa [e]pyrrolo[1,2-a][1,4] diazacyclopentadecine-14a-carboxamide]",> 6.00
12,"COc1ccc2c(O[C@@H]3C[C@H]4C(=O)N[C@]5(C(=O)NS(=O)(=O)C6CC6)C[C@H]5/C=C\CCCCC[C@H](CC(=O)N5CCC(C(F)(F)F)CC5)C(=O)N4C3)cc(-c3csc(NC(C)C)n3)nc2c1C [Compound 121, (2R,6R,13aS,16aS,Z)-N-(cyclopropylsulfonyl)-2-(2-(2-(isopropylamino)thiazol-4-yl)-7-methoxy-8-methylquinolin-4-yloxy)-5,16-dioxo-6-(2-oxo-2-(4-(trifluoromethyl)piperidin-1-yl)ethyl)-1,2,3,5,6,7,8,9,10,11, 13a,14,14a,15,16,16a-hexadecahydrocyclopropa [e]pyrrolo[1,2-a][1,4] diazacyclopentadecine-14a-carboxamide]",> 6.00
13,"COc1ccc2c(O[C@@H]3C[C@H]4C(=O)N[C@]5(C(=O)NS(=O)(=O)C6CC6)C[C@H]5/C=C\CCCCC[C@H](CC(=O)N5CCCCC5)C(=O)N4C3)nccc2c1Cl [Compound 122, (2R,6R,13aS,16aS, Z)-2-(5-chloro-6-methoxylsoquinolin-1-yloxy)-N-(cyclopropylsulfonyl)-5, 16-dioxo-6-(2-oxo-2-(piperidin-1-yl)ethyl)-1,2,3,5,6,7,8,9,10,11, 13a,14,14a,15,16,16a-hexadecahydrocyclopropa [e]pyrrolo[1,2-a][1,4] diazacyclopentadecine-14a-carboxamide]",> 6.00
14,"COc1ccc2c(O[C@@H]3C[C@H]4C(=O)N[C@]5(C(=O)NS(=O)(=O)C6CC6)C[C@H]5/C=C\CCCCC[C@H](CC(=O)N5CCCC(F)(F)C5)C(=O)N4C3)nccc2c1Cl [Compound 123, (2R,6R,13aS,16aS, Z)-2-(5-chloro-6-methoxylsoquinolin-1-yloxy)-N-(cyclopropylsulfonyl)-6-(2-(3,3-difluoropiperidin-1-yl)-2-oxoethyl)-5,16-dioxo-1,2,3,5,6,7,8,9,10,11, 13a,14,14a,15,16,16a-hexadecahydrocyclopropa [e]pyrrolo[1,2-a][1,4] diazacyclopentadecine-14a-carboxamide]",< 5.00
15,COc1ccc2c(O[C@@H]3C[C@H]4C(=O)N[C@]5(C(=O)NS(=O)(=O)C6CC6)C[C@H]5/C=C\CCCCC[C@H](CC(=O)N5CCC(C(F)(F)F)CC5)C(=O)N4C3)nccc2c1Cl [Compound 124],> 6.00
